ChEMBL document CHEMBL1926671, “3D-Quantitative structure-activity relationship and docking studies of the tachykinin NK3 receptor” (Bioorg Med Chem Lett, 2011)

Target: T1, Neuromedin-K receptor (Homo sapiens, UniProt P29371)
T1 sequence (P29371 whole entry): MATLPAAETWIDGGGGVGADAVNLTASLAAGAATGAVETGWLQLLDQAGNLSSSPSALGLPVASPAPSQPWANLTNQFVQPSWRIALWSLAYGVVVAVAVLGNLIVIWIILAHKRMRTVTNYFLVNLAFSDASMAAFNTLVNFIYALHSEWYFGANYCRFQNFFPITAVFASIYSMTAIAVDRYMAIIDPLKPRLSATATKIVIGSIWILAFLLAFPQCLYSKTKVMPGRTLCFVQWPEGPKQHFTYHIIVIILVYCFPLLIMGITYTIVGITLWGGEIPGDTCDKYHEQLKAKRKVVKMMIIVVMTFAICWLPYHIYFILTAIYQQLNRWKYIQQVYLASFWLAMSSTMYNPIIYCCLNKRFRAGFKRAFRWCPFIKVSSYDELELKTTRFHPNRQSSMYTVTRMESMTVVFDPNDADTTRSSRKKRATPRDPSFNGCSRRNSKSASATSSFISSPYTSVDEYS
Experiment: Binding affinity to human NK3 receptor expressed in CHO cells
Type: cell-based

Ki: 158 nM
SMILES: CCCCC(NC(=O)c1cc(-c2ccccc2)nc2ccccc12)c1ccccc1 (stereo unspecified)
